Laboratory results published in PMC12216609, “Inhibitors of eIF1A-ribosome interaction unveil uORF-dependent regulation of translation initiation and antitumor and antiviral effects” (The EMBO Journal, 2025).
Values joined by “and” are separate entries in the source; they are usually repeats but may differ in a detail not shown here. Equal values may be shown once.

Target: T1, eIF1A (Homo sapiens, UniProt P47813)
T1 construct: His-bdSUMO (cleaved yes); made in house; host or cells: E. coli BL-21
T1 sequence (P47813 whole entry): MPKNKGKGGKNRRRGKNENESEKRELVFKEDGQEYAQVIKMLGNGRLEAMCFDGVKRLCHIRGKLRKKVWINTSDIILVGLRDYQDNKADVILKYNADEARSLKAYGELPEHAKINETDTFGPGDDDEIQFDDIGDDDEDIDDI
Test: not given
Type: binding
Details: 1Ai conc. 0.25 uM; background-corrected, relative to DMSO or lowest 1Ai concentration; replicate columns

SMILES	fluorescence ratio, eIF1A
Cn1c(=O)c2ccccc2n2c(CNC(c3ccc4c(c3)CCC4)c3cccs3)nnc12 (stereo not shown) [1Ai-7688]	1.037 and 0.9455

Same assay, conditions: 1Ai conc. 0.5 uM; background-corrected, relative to DMSO or lowest 1Ai concentration; replicate columns

SMILES	fluorescence ratio, eIF1A
Cn1c(=O)c2ccccc2n2c(CNC(c3ccc4c(c3)CCC4)c3cccs3)nnc12 (stereo not shown) [1Ai-7688]	1.0637 and 0.9156

Same assay, conditions: 1Ai conc. 1 uM; background-corrected, relative to DMSO or lowest 1Ai concentration; replicate columns

SMILES	fluorescence ratio, eIF1A
Cn1c(=O)c2ccccc2n2c(CNC(c3ccc4c(c3)CCC4)c3cccs3)nnc12 (stereo not shown) [1Ai-7688]	1.06 and 0.9161

Same assay, conditions: 1Ai conc. 2 uM; background-corrected, relative to DMSO or lowest 1Ai concentration; replicate columns

SMILES	fluorescence ratio, eIF1A
Cn1c(=O)c2ccccc2n2c(CNC(c3ccc4c(c3)CCC4)c3cccs3)nnc12 (stereo not shown) [1Ai-7688]	1.104 and 0.9936

Same assay, conditions: 1Ai conc. 4 uM; background-corrected, relative to DMSO or lowest 1Ai concentration; replicate columns

SMILES	fluorescence ratio, eIF1A
Cn1c(=O)c2ccccc2n2c(CNC(c3ccc4c(c3)CCC4)c3cccs3)nnc12 (stereo not shown) [1Ai-7688]	1.1 and 0.9264

Same assay, conditions: 1Ai conc. 8 uM; background-corrected, relative to DMSO or lowest 1Ai concentration; replicate columns

SMILES	fluorescence ratio, eIF1A
Cn1c(=O)c2ccccc2n2c(CNC(c3ccc4c(c3)CCC4)c3cccs3)nnc12 (stereo not shown) [1Ai-7688]	1.007 and 0.92

Same assay, conditions: 1Ai conc. 16 uM; background-corrected, relative to DMSO or lowest 1Ai concentration; replicate columns

SMILES	fluorescence ratio, eIF1A
Cn1c(=O)c2ccccc2n2c(CNC(c3ccc4c(c3)CCC4)c3cccs3)nnc12 (stereo not shown) [1Ai-7688]	0.939 and 0.9024

Same assay, conditions: 1Ai conc. 32 uM; background-corrected, relative to DMSO or lowest 1Ai concentration; replicate columns

SMILES	fluorescence ratio, eIF1A
Cn1c(=O)c2ccccc2n2c(CNC(c3ccc4c(c3)CCC4)c3cccs3)nnc12 (stereo not shown) [1Ai-7688]	0.8822 and 0.9176

Same assay, conditions: 1Ai conc. 64 uM; background-corrected, relative to DMSO or lowest 1Ai concentration; replicate columns

SMILES	fluorescence ratio, eIF1A
Cn1c(=O)c2ccccc2n2c(CNC(c3ccc4c(c3)CCC4)c3cccs3)nnc12 (stereo not shown) [1Ai-7688]	0.9562 and 1.05

Same assay, conditions: 1Ai conc. 256 uM; background-corrected, relative to DMSO or lowest 1Ai concentration; replicate columns

SMILES	fluorescence ratio, eIF1A
Cn1c(=O)c2ccccc2n2c(CNC(c3ccc4c(c3)CCC4)c3cccs3)nnc12 (stereo not shown) [1Ai-7688]	1.305 and 1.351

Same assay, conditions: fluorescence binding

SMILES	WT eIF1A IC50
Cn1c(=O)c2ccccc2n2c(CNC(c3ccc4c(c3)CCC4)c3cccs3)nnc12 (stereo not shown) [1Ai-7688]	No binding

Same assay, conditions: summary table; fluorescence binding assay

SMILES	IC50 concentration (µM), WT eIF1A
Cn1c(=O)c2ccccc2n2c(CNC(c3ccc4c(c3)CCC4)c3cccs3)nnc12 (stereo not shown) [1Ai-7688]	No binding

Target: T2, RPS10 (Homo sapiens, UniProt P46783)
T2 construct: made in house; host or cells: E. coli BL-21
Test: not given
Type: binding
Details: 1Ai conc. 0.25 uM

SMILES	RPS10 fluorescence ratio to control
Cn1c(=O)c2ccccc2n2c(CNC(c3ccc4c(c3)CCC4)c3cccs3)nnc12 (stereo not shown) [1Ai-7688]	1.264

Same assay, conditions: 1Ai conc. 0.5 uM

SMILES	RPS10 fluorescence ratio to control
Cn1c(=O)c2ccccc2n2c(CNC(c3ccc4c(c3)CCC4)c3cccs3)nnc12 (stereo not shown) [1Ai-7688]	2.089

Same assay, conditions: 1Ai conc. 1 uM

SMILES	RPS10 fluorescence ratio to control
Cn1c(=O)c2ccccc2n2c(CNC(c3ccc4c(c3)CCC4)c3cccs3)nnc12 (stereo not shown) [1Ai-7688]	1.116

Same assay, conditions: 1Ai conc. 2 uM

SMILES	RPS10 fluorescence ratio to control
Cn1c(=O)c2ccccc2n2c(CNC(c3ccc4c(c3)CCC4)c3cccs3)nnc12 (stereo not shown) [1Ai-7688]	1.353

Same assay, conditions: 1Ai conc. 4 uM

SMILES	RPS10 fluorescence ratio to control
Cn1c(=O)c2ccccc2n2c(CNC(c3ccc4c(c3)CCC4)c3cccs3)nnc12 (stereo not shown) [1Ai-7688]	1.556

Same assay, conditions: 1Ai conc. 8 uM

SMILES	RPS10 fluorescence ratio to control
Cn1c(=O)c2ccccc2n2c(CNC(c3ccc4c(c3)CCC4)c3cccs3)nnc12 (stereo not shown) [1Ai-7688]	0.3218

Same assay, conditions: 1Ai conc. 16 uM

SMILES	RPS10 fluorescence ratio to control
Cn1c(=O)c2ccccc2n2c(CNC(c3ccc4c(c3)CCC4)c3cccs3)nnc12 (stereo not shown) [1Ai-7688]	0.1412

Same assay, conditions: 1Ai conc. 32 uM

SMILES	RPS10 fluorescence ratio to control
Cn1c(=O)c2ccccc2n2c(CNC(c3ccc4c(c3)CCC4)c3cccs3)nnc12 (stereo not shown) [1Ai-7688]	0.0755

Same assay, conditions: read-out: IC50 (line under RPS10 binding data)

SMILES	IC50 [µM]
Cn1c(=O)c2ccccc2n2c(CNC(c3ccc4c(c3)CCC4)c3cccs3)nnc12 (stereo not shown) [1Ai-7688]	4.5

Same assay, conditions: read-out: RPS10 IC50

SMILES	IC50 [µM]
Cn1c(=O)c2ccccc2n2c(CNC(c3ccc4c(c3)CCC4)c3cccs3)nnc12 (stereo not shown) [1Ai-7688]	4.5

Same assay, conditions: summary table; fluorescence binding assay; read-out: IC50 concentration (µM), RPS10

SMILES	IC50 [µM]
Cn1c(=O)c2ccccc2n2c(CNC(c3ccc4c(c3)CCC4)c3cccs3)nnc12 (stereo not shown) [1Ai-7688]	4.5

Tested on: CUG/GUG vs AUG start codon luciferase reporters in HEK293T cells
Test: Near-cognate AUG starting codon fidelity reporter assay (GUG, CUG vs AUG)
Type: cell-based
Details: CUG start codon reporter relative to AUG reporter (AUG = 100); compound at 20uM (summary head); single-experiment calculation

SMILES	CUG vs AUG (%)
Cn1c(=O)c2ccccc2n2c(CNC(c3ccc4c(c3)CCC4)c3cccs3)nnc12 (stereo not shown) [1Ai-7688]	6.15

Same assay, conditions: GUG start codon reporter relative to AUG reporter (AUG = 100); compound at 20uM (summary head); single-experiment calculation

SMILES	GUG vs AUG (%)
Cn1c(=O)c2ccccc2n2c(CNC(c3ccc4c(c3)CCC4)c3cccs3)nnc12 (stereo not shown) [1Ai-7688]	1.391

Same assay, conditions: NUG experiment

SMILES	average CUG and GUG	average CUG and GUG relative to DMSO
Cn1c(=O)c2ccccc2n2c(CNC(c3ccc4c(c3)CCC4)c3cccs3)nnc12 (stereo not shown) [1Ai-7688]	3.434	0.7613

Same assay, conditions: NUG experiment, CUG vs AUG reporter

SMILES	CUG Average
Cn1c(=O)c2ccccc2n2c(CNC(c3ccc4c(c3)CCC4)c3cccs3)nnc12 (stereo not shown) [1Ai-7688]	5.347

Same assay, conditions: NUG experiment, GUG vs AUG reporter

SMILES	GUG Average
Cn1c(=O)c2ccccc2n2c(CNC(c3ccc4c(c3)CCC4)c3cccs3)nnc12 (stereo not shown) [1Ai-7688]	1.52

Same assay, conditions: average CUG and GUG relative to DMSO; 20 µM overnight

SMILES	NUG (Final data, Fig. 1E)
Cn1c(=O)c2ccccc2n2c(CNC(c3ccc4c(c3)CCC4)c3cccs3)nnc12 (stereo not shown) [1Ai-7688]	0.761

Same assay, conditions: compound at 20uM; individual repeat

SMILES	GUG vs AUG data (%)
Cn1c(=O)c2ccccc2n2c(CNC(c3ccc4c(c3)CCC4)c3cccs3)nnc12 (stereo not shown) [1Ai-7688]	1.96% and 1.30% and 1.49% and 1.33%

Same assay, conditions: compound at 20uM; summary average of repeats; DMSO control average […]

SMILES	GUG vs AUG (%) Average [%]
Cn1c(=O)c2ccccc2n2c(CNC(c3ccc4c(c3)CCC4)c3cccs3)nnc12 (stereo not shown) [1Ai-7688]	1.52

Same assay, conditions: raw data calculation of one experiment, GFP normalized, AUG set to 100; compound marked (20)

SMILES	calculation: CUG (AUG = 100)	calculation: GUG (AUG = 100)
Cn1c(=O)c2ccccc2n2c(CNC(c3ccc4c(c3)CCC4)c3cccs3)nnc12 (stereo not shown) [1Ai-7688]	4.522	1.611

Tested on: cap-proximal AUG GFP reporter in HEK293T cells;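 note: ratio of upstream to downstream AUG initiation products on GFP Western blot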
Test: not given
Type: cell-based
Details: GFP WB densitometry; 20 µM overnight; dmso 0.965946

SMILES	US/DS ratio, average
Cn1c(=O)c2ccccc2n2c(CNC(c3ccc4c(c3)CCC4)c3cccs3)nnc12 (stereo not shown) [1Ai-7688]	0.7504

Tested on: IRF7 5'UTR firefly luciferase reporter in HEK293T cells;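 note: luciferase signal corrected by a co-transfected GFP reporter for transfection efficiency, read after overnight compound exposure, with Long and Short reporters differing in 5'UTR length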
Test: not given
Details: 1/Result, relative to DMSO; 20 µM

SMILES	Reference vs IRF7 (Final data, Fig. 1E)
Cn1c(=O)c2ccccc2n2c(CNC(c3ccc4c(c3)CCC4)c3cccs3)nnc12 (stereo not shown) [1Ai-7688]	1.509

Same assay, conditions: Long reporter, 20 µM, individual replicates, outliers excluded, DMSO = 1

SMILES	LONG (summary - All), normalized to DMSO
Cn1c(=O)c2ccccc2n2c(CNC(c3ccc4c(c3)CCC4)c3cccs3)nnc12 (stereo not shown) [1Ai-7688]	0.23 and 0.0442 and 0.78 and 0.63 and 1.12 and 0.61

Same assay, conditions: Short reporter, 20 µM, individual replicates, outliers excluded, DMSO = 1

SMILES	SHORT (summary - All), normalized to DMSO
Cn1c(=O)c2ccccc2n2c(CNC(c3ccc4c(c3)CCC4)c3cccs3)nnc12 (stereo not shown) [1Ai-7688]	0.19 and 0.05 and 1.25 and 0.79 and 1.33 and 1.55

Same assay, conditions: compound at 20 µM; left data block (Long); source data of Fig 1C

SMILES	Long 5'UTR reporter luciferase activity, normalized to DMSO (=1), single replicates
Cn1c(=O)c2ccccc2n2c(CNC(c3ccc4c(c3)CCC4)c3cccs3)nnc12 (stereo not shown) [1Ai-7688]	0.2324 and 0.04416 and 0.7839 and 0.6346 and 1.115 and 0.6102

Same assay, conditions: summary - All, 20 µM

SMILES	average ( long vs short ratio)
Cn1c(=O)c2ccccc2n2c(CNC(c3ccc4c(c3)CCC4)c3cccs3)nnc12 (stereo not shown) [1Ai-7688]	0.663
